From paper PMC4899718, “Establishing Virulence Associated Polyphosphate Kinase 2 as a drug target for Mycobacterium tuberculosis” (Scientific Reports, 2016)

Tests used:
[1] = biological target: T1, PPK-2 (MBP-PPK-2) (Mycobacterium tuberculosis, UniProt O05877)
T1 construct: gene ppk2

[2] = biological target: T1, PPK-2 (MBP-PPK-2); assay: luciferase-based ATP synthesis endpoint assay; type: biochemical

T1 sequence (O05877 whole entry, looked up): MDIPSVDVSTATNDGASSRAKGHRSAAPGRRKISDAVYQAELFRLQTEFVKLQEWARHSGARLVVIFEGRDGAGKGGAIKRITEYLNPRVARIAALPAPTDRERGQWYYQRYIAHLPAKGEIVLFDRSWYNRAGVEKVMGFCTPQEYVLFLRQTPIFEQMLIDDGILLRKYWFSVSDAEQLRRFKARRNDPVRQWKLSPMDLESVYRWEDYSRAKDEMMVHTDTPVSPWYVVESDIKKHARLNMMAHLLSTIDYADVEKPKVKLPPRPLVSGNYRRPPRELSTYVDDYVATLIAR

SMILES	luciferase-based ATP quantification [1]	inhibition at 100 µM [2] [%]	other results
Nc1ncnc2c1ncn2[C@@H]1O[C@H](COP(=O)(O)OP(=O)(O)O)[C@@H](O)[C@H]1O [ADP]	ATP synthetic activity of PPK-2 increased in the presence of both ADP and enzyme	–	–
O=c1cc2oc3cc(O)c(O)cc3c(-c3ccccc3O)c-2cc1O [NSC-9037]	–	> 80	–
CCOc1ccc(Nc2c3ccccc3nc3ccccc23)cc1 [NSC-30205]	–	> 80	–
O=c1c(O)cccc2cc(O)c(O)c(O)c12 [NSC-35676]	–	–	% inhibition at 100 μM ([2]; PolyP17 10 μM as phosphate donor, 10 mM MgCl2, pH 7.4, 37 °C, 10 min pre-incubation, luciferase counter-screened): > 80%
CC1Oc2cc3c(-c4c(O)cc(O)c5c(O)c6c(cc45)OC(C)C(C)C6=O)c(O)cc(O)c3c(O)c2C(=O)C1C (stereo not drawn) [NSC-345647]	–	> 80	–
O=P(O)(O)OP(=O)(O)OP(=O)(O)O [PolyP3]	MBP-PPK-2 could also utilize short chain polyphosphates, PolyP3 as the phosphate donor	–	–
